Test results as given in patent US9505739B2, “Spiropyrrolidine beta-secretase inhibitors for the treatment of alzheimer's disease” (Merck Sharp & Dohme Corp., priority 2009, dated 2016).

Biological target: BACE 1 (Homo sapiens (Human), UniProt P56817)
Experiment: ECL assay: homogeneous end point electrochemiluminescence assay of beta-secretase inhibition with biotinylated BACE substrate
Format: biochemical
Details: soluble human BACE 1, pH 6.5, rt
Method: Enzyme inhibition is determined as follows.
ECL Assay: A homogeneous end point electrochemiluminescence (ECL) assay is performed using a biotinylated BACE substrate. The Km of the substrate is approximated at 50 μM. A typical reaction contains approximately 0.6 nM enzyme, 0.25 μM of the substrate, and buffer (50 mM Pipes, pH 6.5, 0.1 mg/ml BSA, 0.2% CHAPS, 15 mM EDTA and 1 mM deferoxamine) in a total reaction volume of 100 μl. The reaction proceeds for 1-2 hrs and is then stopped by the addition of 150 μL of a quench cocktail solution (25 μl M Tris-HCl, pH 8.0, 50 μl INC buffer (2% BSA, 0.2% Tween-20 and 0.05% sodium azide diluted in Phosphate buffered saline (PBS) plus 75 μL PBS), containing Streptavidin coated magnetic beads and ruthenylated antibody which specifically recognizes the C-terminal residue of the product. The samples are subjected to M-384 (Igen Inc., Gaithersburg, Md.) analysis. Under these conditions, less than 10% of substrate is processed by BACE 1. The enzyme used in these studies is soluble (transmembrane domain and cytoplasmic extension excluded) human protein produced in a baculovirus expression system. To measure the inhibitory potency for compounds, 10 concentrations of inhibitors are prepared starting from 200 μM with three fold series dilution. Solutions of the inhibitor in DMSO are included in the reaction mixture (final DMSO concentration is 10%). […]

BACE 1, sequence (P56817 46-457): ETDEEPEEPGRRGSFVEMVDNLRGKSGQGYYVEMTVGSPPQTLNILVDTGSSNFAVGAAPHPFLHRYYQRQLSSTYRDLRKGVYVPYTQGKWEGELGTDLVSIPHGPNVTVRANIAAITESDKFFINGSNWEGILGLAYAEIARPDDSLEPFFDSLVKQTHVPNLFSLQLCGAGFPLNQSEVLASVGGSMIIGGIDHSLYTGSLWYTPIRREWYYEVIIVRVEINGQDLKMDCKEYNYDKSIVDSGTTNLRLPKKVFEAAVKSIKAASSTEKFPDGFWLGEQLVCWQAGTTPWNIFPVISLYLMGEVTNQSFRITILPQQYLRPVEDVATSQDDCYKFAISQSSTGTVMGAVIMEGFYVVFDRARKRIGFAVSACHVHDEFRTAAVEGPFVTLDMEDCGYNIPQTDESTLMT

- IC50: 450 nM
SMILES: Cc1cccc(C2CC(c3ccccc3)CCN2C(=O)[C@@H]2CNC[C@]23CCCc2nc(Cl)ccc23)c1 (stereo partly drawn) [Example 100, [(3R,4S)-2′-chloro-7′,8′-dihydro-6′H-spiro [pyrrolidine-3,5′-quinolin]-4-yl][2-(3-methylphenyl)-4-phenylpiperidin-1-yl] methanone]
